{"source": "patent US8729053B2", "about": "“Nuclear factor kappa B pathway inhibitor composition and use of same” (The United States of America, as represented by the …, priority 2008, dated 2014)", "assay_type_in_all_cases": "cell-based", "key": {"HEK293T cells": {"system": "HEK293T cells", "assay": "XTT assay in HEK293T cells", "method": "To evaluate whether the compound I biological activity can imitate TAM67 specificity, three different transcriptional promoter reporters were used, AP-1, NFκB, and SRE (Serum response element) in luciferase reporter assays (FIG. 1A: The transfected cells were pre-treated with varied concentrations of compound I or DMSO for 1 hour before 18 hours stimulation by TPA (10 ng/ml) or DMSO as vehicle. An asterisk (*) indicates a separate experiment with NFκB dependent luciferase only. Assays were performed with two independent experiments each in quadruplicate.). All three activities were induced by TPA but only induction of AP-I and NFκB were inhibited by TAM67. The SRE reporter was used as a specificity control and indicator of cell proliferation. TPA-induced SRE activity was not repressed by TAM67 when coexpressed with the SRE-Luc reporter in HEK293 cells. The same concentration (10 ng/ml, 16.2 nM) and incubation time (18 hrs) were used for TPA induction as previously used for the high throughput screen (HTS) (Ruocco et al., J. Biomol. Screen., 2007, 12, 133-9) along with 1 h pretreatment of compound I. The screening results had tested concentrations as high as 40 μM compound I with cell numbers showing 95.5+/−6.2% of DMSO control (ave+/− sd, n=3) by the XTT assay in HEK293T cells."}, "p65/p50": {"system": "p65/p50", "assay": "Nuclear translocation of p65/p50, immunoblot of nuclear and cytoplasmic extracts", "settings": "compound I pretreatment, HEK293", "method": "To measure endogenous level of several proteins in response to TPA induction and compound I, HEK293 cells were lysed with RIPA buffer (10 mM Tris-HCl pH 7.5, 1 mM EDTA, 0.1% sodium dodecyl sulfate, 0.1% deoxycholate, and protease inhibitor). Whole cell extracts were subjected to immunoblot analysis with the following antibodies: p65 (F-6), p50 (E-10), p52 (C-5), RelB (C-19), IκBα (C-21), PCNA (F-2) were obtained from Santa Cruz Biotechnology (Santa Cruz, Calif.). IKKα, IKKβ, IKKγ, phospho-IκBα, phospho-IKKα/β, phospho-IKKγ, pohospho-Stat3 (Tyr 705 and Ser 727), phospho-p65 (Ser536 and Ser276), phospho-p44/42, phospho-JNKs were purchased from Cell Signaling (Danvers, Mass.), and α-tubulin from Sigma (St. Louis, Mo.). Nuclear and cytoplasmic extracts were prepared with HEK293 cells by NE-PER Nuclear and Cytoplasmic Extraction Reagents (Pierce Biotechnology, Rockford, Ill.) according to the manufacturer's protocol.\nNuclear translocation of endogenous p65/p50 and RelB/p52 heterodimers were monitored The activation of heterodimers p65/p50 and RelB/p52 occurs by distinct pathways dependent on IKKβ or IKKα catalytic activity. Repression of IKKβ would be expected to influence nuclear translocation of p65/p50 while repression of IKKα would influence processing of p100 to p52. […] However translocation of RelB is only dependent on IKKα for processing of its dimer partner p52 from p100. […]"}, "[1]": {"system": "MCF-7, T47D, and MDA-MB-231 breast cancer cell lines", "assay": "Matrigel invasion assay", "method": "Breast cancer cell lines, MCF-7, T47D, and MDA-MB-231 were used to measure the effect of compound I on TPA-induced invasion activity using Matrigel Invasion Chamber (BD Bioscience, San Jose, Calif.) according to the manufacturer's protocol. Matrigel-coated chambers containing an 8 μm pore size filter were fitted into a 24-well tissue culture plate. Briefly, breast cancer cells (1×10^5 cells/ml) of each cell line were seeded into […] Matrigel-coated chambers with DMSO, TPA, or TPA plus compound I conditions and incubated for 24 hrs. The media wells for each plate contained only standard growth medium. After 24 hrs the non-invading cells were removed from the upper side of the chamber by cotton tipped applicators. The invaded cells on the bottom side were stained using Diff-Quik staining (Dade Behring, Deerfield, Ill.) and photographed. Three independent results were very similar.\nIn order to evaluate the potential therapeutic activity of the compound, tests for the biological activity of compound I were performed. […] Following anchorage-independent colony induction in TPA-treated cells without or with compound I, colonies were lysed and measured with CyQuant GR Dye to detect DNA by fluorescence plate reader as a measure of colony count. Total transformed colony numbers were calculated from RFU and cell dose curve of JB6 cells. […]"}, "[2]": {"system": "NCI-60 panel of human cancer cell lines", "assay": "NCI-60 cancer screen, growth inhibition", "description": "Thus in addition to inhibiting tumorigenesis (transformation) and tumor progression (invasion), compound I may have potential for tumor growth inhibition in some cancer sites."}}, "note": "Entries after “also recorded” stand apart in the source; their conditions may differ. Where a name gives a salt, the structure may show the parent alone."}
{"smiles": "Cc1cc(N)ccc1N=Nc1ccc(S(=O)(=O)CCOS(=O)(=O)O)cc1", "note": "[compound I, 2-(4-((4-amino-2-methylphenyl)diazenyl)phenylsulfonyl)ethyl hydrogen sulfate]", "values": [{"measurement": "Cell numbers, % of DMSO control (ave+/− sd, n=3)", "setting": "HEK293T cells; 40 μM, XTT assay, HEK293T", "result": "95.5+/−6.2%"}, {"measurement": "Cytotoxic or cytostatic activity", "setting": "HEK293T cells; HEK293 cells", "result": "neither cytotoxic nor cytostatic activity"}, {"measurement": "TPA-induced nuclear translocation of p65 (RelA)", "setting": "p65/p50", "result": "remarkably repressed; also recorded: interception"}, {"measurement": "Basal invasive activity", "setting": "[1]; MBA-MB-231 cells", "result": "completely inhibited"}, {"measurement": "TPA-increased invasion", "setting": "[1]; three breast cancer cell lines, 24 hrs", "result": "completely inhibited; also recorded: inhibits"}, {"measurement": "inhibition at 1 µM", "setting": "[2]; Homo sapiens, compound at 1 μM, read-out: Growth inhibition of leukemia lines", "result": "> 50", "unit": "%"}, {"measurement": "Killing of leukemia lines", "setting": "[2]; concentrations up to 100 μM", "result": "does not kill"}, {"measurement": "Sensitivity of leukemia and breast cancer cell lines versus lines from other cancer sites", "setting": "[2]; growth inhibition", "result": "more sensitive"}, {"measurement": "Concentration at which most of the NCI-60 lines showed growth inhibition", "setting": "[2]; most of the NCI-60 human cancer cell lines", "result": "greater than 10 μM"}]}
